{"source": "patent US20060246505A1", "about": "“Modulation of the synthesis of insulin” (priority 2003, published 2006)", "origin": "cited, not measured here", "tested_on": "signalling pathways that trigger transcription", "details": "glucose-triggered resynthesis of insulin in beta cells; prior-art statement"}
{"smiles": "C[S+]([O-])c1ccc(-c2nc(-c3ccncc3)c(-c3ccc(F)cc3)[nH]2)cc1", "note": "(stereo not shown) [SB 203580]", "values": [{"measurement": "inhibition of the signalling pathways that trigger transcription (resynthesis of insulin)", "value": "can be inhibited"}]}
